Literature values as cited in patent US20070134395A1, “Method of reducing manganese in defatted soy isolate” (priority 2005, published 2007).
Like-named read-outs stand apart in the source and are kept apart here.

How the values were obtained:
[1] = neonate, excess Mn not metabolized
[2] = neonate, from soy-based infant formula
[3] = calcium-deficient rat pups

SMILES | share of excess Mn stored in the basal ganglia region [1] | intestinal absorption of Mn (adults) | intestinal absorption of Mn (neonatal, animal models) | Mn absorbed above metabolic need [2] | greater amount of Mn in the cerebral column tissue and fluids [3] [%]
[Mn+2] [Mn, Manganese] | about eight | one percent to about two percent | seventy percent to about eighty percent | approximately 1.1 mg | 
CC(=O)[O-].CC(=O)[O-].[Mg+2] [magnesium acetate] |  |  |  |  | 900
